Experimental data taken from patent US8247211B2, “Glycopeptide antibiotics” (American Cyanamid Company, priority 2001, dated 2012).
Converted amounts (≈) assume the structure as drawn. Blank lines part the entries; values can stand above or below the compound they belong to.

Key:
Test in all cases: In vitro antibacterial evaluation: minimum inhibitory concentration (MIC), broth dilution method
Assay type in all cases: cell-based
Enterococcus sp. = conditions: broth dilution, 18 hours at 35° C.
In short: (§1)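 An MIC is reported for each organism as the least concentration giving inhibition, using broth dilution over 64-0.06 μg/mL with a 5×10^5 CFU/mL inoculum.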

Staphylococcus sp. = conditions: broth dilution, 18 hours at 35° C.; for MIC Staphylococcus aureus-SMITH (GC 4543): strain SMITH GC 4543
In short: as §1

Streptococcus sp. = conditions: broth dilution, 18 hours at 35° C.
In short: as §1

Escherichia coli = conditions: broth dilution, 18 hours at 35° C.
[1] = Enterococcus faecalis (ATCC 29212)
[2] = Enterococcus faecalis (GC 2242)
[3] = Enterococcus faecalis (GC 2691)
[4] = Enterococcus faecalis (GC 3059)
[5] = Enterococcus faecalis (GC 4552)
[6] = Enterococcus faecalis (GC 4553)
[7] = Enterococcus faecalis (GC 4554)
[8] = Enterococcus faecalis (GC 6189)
[9] = Streptococcus agalactiae (GC 4564)
[10] = Streptococcus pneumoniae (ATCC 6301)
[11] = Streptococcus pneumoniae (GC 1894)
[12] = Streptococcus pneumoniae (GC 4565)
[13] = Streptococcus pyogenes (GC 4563)

MIC Enterococcus avium (GC 4558) (Enterococcus sp.; Enterococcus avium (GC 4558)): 2 µg/mL (≈ 1.67 µM)
MIC Enterococcus faecalis (ATCC 29212) (Enterococcus sp.; [1]): 8 µg/mL (≈ 6.7 µM)
MIC Enterococcus faecalis (GC 2242) (Enterococcus sp.; [2]): 4 µg/mL (≈ 3.35 µM)
MIC Enterococcus faecalis (GC 2691) (Enterococcus sp.; [3]): 32 µg/mL (≈ 26.8 µM)
MIC Enterococcus faecalis (GC 3059) (Enterococcus sp.; [4]): 32 µg/mL (≈ 26.8 µM)
MIC Enterococcus faecalis (GC 4552) (Enterococcus sp.; [5]): 16 µg/mL (≈ 13.4 µM)
MIC Enterococcus faecalis (GC 4553) (Enterococcus sp.; [6]): 4 µg/mL (≈ 3.35 µM)
MIC Enterococcus faecalis (GC 4554) (Enterococcus sp.; [7]): 64 µg/mL (≈ 53.6 µM)
MIC Enterococcus faecalis (GC 6189) (Enterococcus sp.; [8]): 32 µg/mL (≈ 26.8 µM)
MIC Enterococcus faecium (GC 2243) (Enterococcus sp.; Enterococcus faecium (GC 2243)): 4 µg/mL (≈ 3.35 µM)
MIC Enterococcus faecium (GC 4556) (Enterococcus sp.; Enterococcus faecium (GC 4556)): 8 µg/mL (≈ 6.7 µM)
MIC Enterococcus faecium (GC 4557) (Enterococcus sp.; Enterococcus faecium (GC 4557)): 4 µg/mL (≈ 3.35 µM)
MIC Enterococcus avium (GC 4558) (Enterococcus sp.): 2 µg/mL (≈ 1.67 µM)
MIC Enterococcus faecalis (ATCC 29212) (Enterococcus sp.): 8 µg/mL (≈ 6.7 µM)
MIC Enterococcus faecalis (GC 2242) (Enterococcus sp.): 4 µg/mL (≈ 3.35 µM)
MIC Enterococcus faecalis (GC 2691) (Enterococcus sp.): 32 µg/mL (≈ 26.8 µM)
MIC Enterococcus faecalis (GC 3059) (Enterococcus sp.): 32 µg/mL (≈ 26.8 µM)
MIC Enterococcus faecalis (GC 4552) (Enterococcus sp.): 16 µg/mL (≈ 13.4 µM)
MIC Enterococcus faecalis (GC 4553) (Enterococcus sp.): 4 µg/mL (≈ 3.35 µM)
MIC Enterococcus faecalis (GC 4554) (Enterococcus sp.): 64 µg/mL (≈ 53.6 µM)
MIC Enterococcus faecalis (GC 6189) (Enterococcus sp.): 32 µg/mL (≈ 26.8 µM)
MIC Enterococcus faecium (GC 2243) (Enterococcus sp.): 4 µg/mL (≈ 3.35 µM)
MIC Enterococcus faecium (GC 4556) (Enterococcus sp.): 8 µg/mL (≈ 6.7 µM)
MIC Enterococcus faecium (GC 4557) (Enterococcus sp.): 4 µg/mL (≈ 3.35 µM)
MIC Coagulase Negative Staphylococcus (GC 4547) (Staphylococcus sp.): 16 µg/mL (≈ 13.4 µM)
MIC Coagulase Negative Staphylococcus (GC 4548) (Staphylococcus sp.): 2 µg/mL (≈ 1.67 µM)
MIC Coagulase Negative Staphylococcus (GC 4549) (Staphylococcus sp.): 0.5 µg/mL (≈ 0.419 µM)
MIC Coagulase Negative Staphylococcus (GC 4551) (Staphylococcus sp.): 8 µg/mL (≈ 6.7 µM)
MIC Staphylococcus aureus SMITH (GC 4543) (Staphylococcus sp.): 8 µg/mL (≈ 6.7 µM)
MIC Staphylococcus aureus-SMITH (GC 4543) (Staphylococcus sp.): 8 µg/mL (≈ 6.7 µM)
MIC Streptococcus agalactiae (GC 4564) (Streptococcus sp.; [9]): 2 µg/mL (≈ 1.67 µM)
MIC Streptococcus pneumoniae (ATCC 6301) (Streptococcus sp.; [10]): 4 µg/mL (≈ 3.35 µM)
MIC Streptococcus pneumoniae (GC 1894) (Streptococcus sp.; [11]): 2 µg/mL (≈ 1.67 µM)
MIC Streptococcus pneumoniae (GC 4565) (Streptococcus sp.; [12]): 8 µg/mL (≈ 6.7 µM)
MIC Streptococcus pyogenes (GC 4563) (Streptococcus sp.; [13]): 1 µg/mL (≈ 0.837 µM)
MIC Streptococcus agalactiae (GC 4564) (Streptococcus sp.): 2 µg/mL (≈ 1.67 µM)
MIC Streptococcus pneumoniae (ATCC 6301) (Streptococcus sp.): 4 µg/mL (≈ 3.35 µM)
MIC Streptococcus pneumoniae (GC 1894) (Streptococcus sp.): 2 µg/mL (≈ 1.67 µM)
MIC Streptococcus pneumoniae (GC 4565) (Streptococcus sp.): 8 µg/mL (≈ 6.7 µM)
MIC Streptococcus pyogenes (GC 4563) (Streptococcus sp.): 1 µg/mL (≈ 0.837 µM)
MIC Escherichia coli (ATCC 25922) (Escherichia coli): >64 µg/mL
MIC Escherichia coli (GC 4559) (Escherichia coli): >64 µg/mL
MIC Escherichia coli (GC 4560) (Escherichia coli): 32 µg/mL (≈ 26.8 µM)
SMILES: CC(c1ccccc1)C1NC(=O)CNC(=O)C(CO)NC(=O)C(C(O)C2CNC(=N)N2C2OC(CO)C(O)C(O)C2O)NC(=O)C(C(O)C2CNC(=N)N2)NC(=O)C(Cc2ccc3oc(SCc4ccc(-c5ccccc5)cc4)nc3c2)NC1=O (stereo not shown) [Example 47]
MIC Staphylococcus haemolyticus (GC 4546) (Staphylococcus sp.): 8 µg/mL (≈ 6.7 µM)

MIC Enterococcus avium (GC 4558) (Enterococcus sp.; Enterococcus avium (GC 4558)): 8 µg/mL (≈ 6.98 µM)
MIC Enterococcus faecalis (ATCC 29212) (Enterococcus sp.; [1]): 64 µg/mL (≈ 55.8 µM)
MIC Enterococcus faecalis (GC 2242) (Enterococcus sp.; [2]): 64 µg/mL (≈ 55.8 µM)
MIC Enterococcus faecalis (GC 2691) (Enterococcus sp.; [3]): 64 µg/mL (≈ 55.8 µM)
MIC Enterococcus faecalis (GC 3059) (Enterococcus sp.; [4]): 64 µg/mL (≈ 55.8 µM)
MIC Enterococcus faecalis (GC 4552) (Enterococcus sp.; [5]): 64 µg/mL (≈ 55.8 µM)
MIC Enterococcus faecalis (GC 4553) (Enterococcus sp.; [6]): 16 µg/mL (≈ 14 µM)
MIC Enterococcus faecalis (GC 4554) (Enterococcus sp.; [7]): 64 µg/mL (≈ 55.8 µM)
MIC Enterococcus faecalis (GC 6189) (Enterococcus sp.; [8]): 64 µg/mL (≈ 55.8 µM)
MIC Enterococcus faecium (GC 2243) (Enterococcus sp.; Enterococcus faecium (GC 2243)): 16 µg/mL (≈ 14 µM)
MIC Enterococcus faecium (GC 4556) (Enterococcus sp.; Enterococcus faecium (GC 4556)): 64 µg/mL (≈ 55.8 µM)
MIC Enterococcus faecium (GC 4557) (Enterococcus sp.; Enterococcus faecium (GC 4557)): 4 µg/mL (≈ 3.49 µM)
MIC Enterococcus avium (GC 4558) (Enterococcus sp.): 8 µg/mL (≈ 6.98 µM)
MIC Enterococcus faecalis (ATCC 29212) (Enterococcus sp.): 64 µg/mL (≈ 55.8 µM)
MIC Enterococcus faecalis (GC 2242) (Enterococcus sp.): 64 µg/mL (≈ 55.8 µM)
MIC Enterococcus faecalis (GC 2691) (Enterococcus sp.): 64 µg/mL (≈ 55.8 µM)
MIC Enterococcus faecalis (GC 3059) (Enterococcus sp.): 64 µg/mL (≈ 55.8 µM)
MIC Enterococcus faecalis (GC 4552) (Enterococcus sp.): 64 µg/mL (≈ 55.8 µM)
MIC Enterococcus faecalis (GC 4553) (Enterococcus sp.): 16 µg/mL (≈ 14 µM)
MIC Enterococcus faecalis (GC 4554) (Enterococcus sp.): 64 µg/mL (≈ 55.8 µM)
MIC Enterococcus faecalis (GC 6189) (Enterococcus sp.): 64 µg/mL (≈ 55.8 µM)
MIC Enterococcus faecium (GC 2243) (Enterococcus sp.): 16 µg/mL (≈ 14 µM)
MIC Enterococcus faecium (GC 4556) (Enterococcus sp.): 64 µg/mL (≈ 55.8 µM)
MIC Enterococcus faecium (GC 4557) (Enterococcus sp.): 4 µg/mL (≈ 3.49 µM)
MIC Coagulase Negative Staphylococcus (GC 4547) (Staphylococcus sp.): 4 µg/mL (≈ 3.49 µM)
MIC Coagulase Negative Staphylococcus (GC 4548) (Staphylococcus sp.): 8 µg/mL (≈ 6.98 µM)
MIC Coagulase Negative Staphylococcus (GC 4549) (Staphylococcus sp.): 4 µg/mL (≈ 3.49 µM)
MIC Coagulase Negative Staphylococcus (GC 4551) (Staphylococcus sp.): 16 µg/mL (≈ 14 µM)
MIC Staphylococcus aureus SMITH (GC 4543) (Staphylococcus sp.): 16 µg/mL (≈ 14 µM)
MIC Staphylococcus aureus-SMITH (GC 4543) (Staphylococcus sp.): 16 µg/mL (≈ 14 µM)
MIC Streptococcus agalactiae (GC 4564) (Streptococcus sp.; [9]): 16 µg/mL (≈ 14 µM)
MIC Streptococcus pneumoniae (ATCC 6301) (Streptococcus sp.; [10]): 16 µg/mL (≈ 14 µM)
MIC Streptococcus pneumoniae (GC 1894) (Streptococcus sp.; [11]): 8 µg/mL (≈ 6.98 µM)
MIC Streptococcus pneumoniae (GC 4565) (Streptococcus sp.; [12]): 32 µg/mL (≈ 27.9 µM)
MIC Streptococcus pyogenes (GC 4563) (Streptococcus sp.; [13]): 8 µg/mL (≈ 6.98 µM)
MIC Streptococcus agalactiae (GC 4564) (Streptococcus sp.): 16 µg/mL (≈ 14 µM)
MIC Streptococcus pneumoniae (ATCC 6301) (Streptococcus sp.): 16 µg/mL (≈ 14 µM)
MIC Streptococcus pneumoniae (GC 1894) (Streptococcus sp.): 8 µg/mL (≈ 6.98 µM)
MIC Streptococcus pneumoniae (GC 4565) (Streptococcus sp.): 32 µg/mL (≈ 27.9 µM)
MIC Streptococcus pyogenes (GC 4563) (Streptococcus sp.): 8 µg/mL (≈ 6.98 µM)
MIC Escherichia coli (ATCC 25922) (Escherichia coli): 32 µg/mL (≈ 27.9 µM)
MIC Escherichia coli (GC 4559) (Escherichia coli): 32 µg/mL (≈ 27.9 µM)
MIC Escherichia coli (GC 4560) (Escherichia coli): 4 µg/mL (≈ 3.49 µM)
SMILES: CC(c1ccccc1)C1NC(=O)CNC(=O)C(CO)NC(=O)C(C(O)C2CNC(=N)N2C2OC(CO)C(O)C(O)C2O)NC(=O)C(C(O)C2CNC(=N)N2)NC(=O)C(Cc2ccc3oc(SCC(=O)c4ccccc4)nc3c2)NC1=O (stereo not shown) [Example 48]
MIC Staphylococcus haemolyticus (GC 4546) (Staphylococcus sp.): 8 µg/mL (≈ 6.98 µM)
